Results published in patent US20240384226A1, “RHODOPSEUDOMONAS PALUSTRIS TIE-1 STRAINS AND METHODS FOR BIOPLASTIC PRODUCTION” (Washington University, priority 2023, published 2024).
Converted amounts (≈) assume the structure as drawn.

System: TIE-1
Test: minimum inhibitory concentration (MIC) of antibiotics for TIE-1
Type: cell-based, Rhodopseudomonas palustris TIE-1
Conditions: resistance of TIE-1 to selection antibiotics; for MIC: Rhodopseudomonas palustris

NC[C@H]1O[C@H](O[C@H]2[C@H](O)[C@@H](O[C@H]3O[C@H](CO)[C@@H](O)[C@H](N)[C@H]3O)[C@H](N)C[C@@H]2N)[C@H](O)[C@@H](O)[C@@H]1O [kanamycin]
MIC: 50 mg/L (≈ 103 µM)

gentamicin
minimum inhibitory concentration (MIC): 200 mg/L

O=C(N[C@H](CO)[C@H](O)c1ccc([N+](=O)[O-])cc1)C(Cl)Cl [chloramphenicol]
MIC: 100 mg/L (≈ 309 µM)
